Patent US20250221996A1, “HETEROCYCLIC COMPOUNDS, COMPOSITIONS THEREOF, AND METHODS OF TREATMENT THEREWITH” (BeiGene, Ltd., priority 2022, published 2025)

What follows are compounds tested on pERK1/2(THR202/TYR204) level in AsPC-1 cells (assay: pERK assay (HTRF) in AsPC-1 cell line). Settings: 2 h compound treatment.
Format: cell-based
Experimental: AsPC-1 cell line was used in this study. Cells were maintained in RPMI-1640 supplemented with 10% fetal bovine serum (Thermo Fisher), 50 units/mL penicillin and streptomycin (Thermo Fisher) and kept at 37° C. in a humidified atmosphere of 5% CO2 in air. Cells were reinstated from frozen stocks that were laid down within 30 passages from the original cells purchased. 30000 cells per well were seeded into a 96-well plate and incubated overnight. Cells were treated with a 10-point dilution series. The final compound concentration is from 0 to 10 μM. After 2 h compound treatment, cells were lysed, and the pERK1/2(THR202/TYR204) level in the cell lysates was detected by HTRF kit (Cisbio). In brief, a total of 16 μL of cell lysate from each well of a 96-well plate was transferred to a 384-well white assay plate. Lysate from each well was incubated with 2 μL of Eu3+-cryptate (donor) labeled anti-phospho-ERK1/2 and 2 μL of D2 (acceptor) labeled anti-phospho-ERK1/2 antibodies (Cisbio) overnight in dark at room temperature. When donor and acceptor are in close proximity, excitation of the donor with laser triggers a Fluorescence Resonance Energy Transfer (FRET) towards the acceptor, which in turn fluoresces at 655 nm wavelength. FRET signals were measured using a PHERAstar FSX reader (BMG Labtech). IC50 determination was performed by fitting the curve of percent inhibition versus the log of the inhibitor concentration using Dotmatics.
`N#Cc1c(N)sc2c(F)ccc(-c3c(C(F)(F)F)cc4c(N5CC6CCC(C5)N6)nc(OCC56COC(C(F)F)(C5)C6)nc4c3F)c12` (single isomer, unassigned) [Example 1-Isomer 1, 4-(4-(3,8-diazabicyclo[3.2.1]octan-3-yl)-2-((1-(difluoromethyl)-2-oxabicyclo[2.1.1]hexan-4-yl)methoxy)-8-fluoro-6-(trifluoromethyl)quinazolin-7-yl)-2-amino-7-fluorobenzo[b]thiophene-3-carbonitrile] showed an IC50 of 2.57 µM.
Compound `N#Cc1c(N)sc2c(F)ccc(-c3c(C(F)(F)F)cc4c(N5CC6CCC(C5)N6)nc(OCC56COC(C(F)F)(C5)C6)nc4c3F)c12` (single isomer, unassigned) [Example 1-Isomer 2, 4-(4-(3,8-diazabicyclo[3.2.1]octan-3-yl)-2-((1-(difluoromethyl)-2-oxabicyclo[2.1.1]hexan-4-yl)methoxy)-8-fluoro-6-(trifluoromethyl)quinazolin-7-yl)-2-amino-7-fluorobenzo[b]thiophene-3-carbonitrile] has an IC50 of 0.084 µM.
With `N#Cc1c(N)sc2c(F)ccc(-c3c(Cl)cc4c(N5CC6CCC(C5)N6)nc(OCC56COC(C5)C6)nc4c3F)c12` (single isomer, unassigned) [Example 2-Isomer 1, 4-(2-((2-oxabicyclo[2.1.1]hexan-4-yl)methoxy)-4-(3,8-diazabicyclo[3.2.1]octan-3-yl)-6-chloro-8-fluoroquinazolin-7-yl)-2-amino-7-fluorobenzo[b]thio phene-3-carbonitrile] the IC50 was 0.16 µM.
With `N#Cc1c(N)sc2c(F)ccc(-c3c(Cl)cc4c(N5CC6CCC(C5)N6)nc(OCC56COC(C5)C6)nc4c3F)c12` (single isomer, unassigned) [Example 2-Isomer 2, 4-(2-((2-oxabicyclo[2.1.1]hexan-4-yl)methoxy)-4-(3,8-diazabicyclo[3.2.1]octan-3-yl)-6-chloro-8-fluoroquinazolin-7-yl)-2-amino-7-fluorobenzo[b]thio phene-3-carbonitrile] the IC50 was > 10 µM.
Compound `COC1(COc2nc(N3CC4CCC(C3)N4)c3cc(C(F)(F)F)c(-c4ccc(F)c5sc(N)c(C#N)c45)c(F)c3n2)CCOC1` (single isomer, unassigned) [Example 3-Isomer 3, 4-(4-(3,8-diazabicyclo[3.2.1]octan-3-yl)-8-fluoro-2-((3-methoxytetra hydrofuran-3-yl)methoxy)-6-(trifluoromethyl)quinazolin-7-yl)-2-amino-7-fluoro benzo[b]thiophene-3-carbonitrile] has an IC50 of 0.096 µM.
`COC1(COc2nc(N3CC4CCC(C3)N4)c3cc(C(F)(F)F)c(-c4ccc(F)c5sc(N)c(C#N)c45)c(F)c3n2)CCOC1` (single isomer, unassigned) [Example 3-Isomer 4, 4-(4-(3,8-diazabicyclo[3.2.1]octan-3-yl)-8-fluoro-2-((3-methoxytetra hydrofuran-3-yl)methoxy)-6-(trifluoromethyl)quinazolin-7-yl)-2-amino-7-fluoro benzo[b]thiophene-3-carbonitrile] was tested, and the IC50 was 0.273 µM.
In the case of `N#Cc1c(N)sc2c(F)ccc(-c3c(C(F)(F)F)cc4c(N5C6CCC5CNC6)nc(OCC56COC(C5)C6)nc4c3F)c12` (single isomer, unassigned) [Example 9-Isomer 1, 4-(2-((2-oxabicyclo[2.1.1]hexan-4-yl)methoxy)-4-(3,8-diazabicyclo[3.2.1]octan-8-yl)-8-fluoro-6-(trifluoromethyl)quinazolin-7-yl)-2-amino-7-fluorobenzo[b]thiophene-3-carbonitrile], the IC50 is reported as > 10 µM.
Work on `N#Cc1c(N)sc2c(F)ccc(-c3c(C(F)(F)F)cc4c(N5C6CCC5CNC6)nc(OCC56COC(C5)C6)nc4c3F)c12` (single isomer, unassigned) [Example 9-Isomer 2, 4-(2-((2-oxabicyclo[2.1.1]hexan-4-yl)methoxy)-4-(3,8-diazabicyclo[3.2.1]octan-8-yl)-8-fluoro-6-(trifluoromethyl)quinazolin-7-yl)-2-amino-7-fluorobenzo[b]thiophene-3-carbonitrile] yielded an IC50 of 0.103 µM.
For `N#Cc1c(N)sc2c(F)ccc(-c3c(C(F)(F)F)cc4c(N5CC6CCC(C5)N6)nc(OCC5(C#N)CCOC5)nc4c3F)c12` (single isomer, unassigned) [Example 10-Isomer 1, 3-(((7-(2-amino-3-cyano-7-fluorobenzo[b]thiophen-4-yl)-4-(3,8-diazabicyclo[3.2.1]octan-3-yl)-8-fluoro-6-(trifluoromethyl)quinazolin-2-yl)oxy)methyl)tetrahydrofuran-3-carbonitrile], the IC50 was > 10 µM.
With `N#Cc1c(N)sc2c(F)ccc(-c3c(C(F)(F)F)cc4c(N5CC6CCC(C5)N6)nc(OCC5(C#N)CCOC5)nc4c3F)c12` (single isomer, unassigned) [Example 10-Isomer 2, 3-(((7-(2-amino-3-cyano-7-fluorobenzo[b]thiophen-4-yl)-4-(3,8-diazabicyclo[3.2.1]octan-3-yl)-8-fluoro-6-(trifluoromethyl)quinazolin-2-yl)oxy)methyl)tetrahydrofuran-3-carbonitrile] the IC50 was > 10 µM.
`N#Cc1c(N)sc2c(F)ccc(-c3c(C(F)(F)F)cc4c(N5CC6CCC(C5)N6)nc(OCC5(C#N)CCOC5)nc4c3F)c12` (single isomer, unassigned) [Example 10-Isomer 3, 3-(((7-(2-amino-3-cyano-7-fluorobenzo[b]thiophen-4-yl)-4-(3,8-diazabicyclo[3.2.1]octan-3-yl)-8-fluoro-6-(trifluoromethyl)quinazolin-2-yl)oxy)methyl)tetrahydrofuran-3-carbonitrile] gave an IC50 of 0.042 µM.
For `N#Cc1c(N)sc2c(F)ccc(-c3c(C(F)(F)F)cc4c(N5CC6CCC(C5)N6)nc(OCC5(C#N)CCOC5)nc4c3F)c12` (single isomer, unassigned) [Example 10-Isomer 4, 3-(((7-(2-amino-3-cyano-7-fluorobenzo[b]thiophen-4-yl)-4-(3,8-diazabicyclo[3.2.1]octan-3-yl)-8-fluoro-6-(trifluoromethyl)quinazolin-2-yl)oxy)methyl)tetrahydrofuran-3-carbonitrile], the IC50 was 0.056 µM.
With `N#Cc1c(N)sc2c(F)ccc(-c3c(C(F)(F)F)cc4c(N5CC6CCC(C5)N6)nc(OCC5(C(F)F)CCOC5)nc4c3F)c12` (single isomer, unassigned) [Example 14-Isomer 4, 4-(4-(3,8-diazabicyclo[3.2.1]octan-3-yl)-2-((3-(difluoromethyl)tetrahydrofuran-3-yl)methoxy)-8-fluoro-6-(trifluoromethyl)quinazolin-7-yl)-2-amino-7-fluorobenzo[b]thiophene-3-carbonitrile] the IC50 was 0.138 µM.
In the case of `N#Cc1c(N)sc2c(F)ccc(-c3c(C(F)(F)F)cc4c(N5CC6CCC(C5)N6)nc(OCC5(C#N)CCOCC5)nc4c3F)c12` (single isomer, unassigned) [Example 22-Isomer 1, 4-(((7-(2-amino-3-cyano-7-fluorobenzo[b]thiophen-4-yl)-4-(3,8-diazabicyclo[3.2.1]octan-3-yl)-8-fluoro-6-(trifluoromethyl)quinazolin-2-yl)oxy)methyl)tetrahydro-2H-pyran-4-carbonitrile], the IC50 is reported as > 10 µM.

Same assay, conditions: Homo sapiens, ASPC1, 2 h, 2 h compound treatment
Compound `COC1(COc2nc(N3CC4CCC(C3)N4)c3cc(C(F)(F)F)c(-c4ccc(F)c5sc(N)c(C#N)c45)c(F)c3n2)CCOCC1` (single isomer, unassigned) [Example 4-Isomer 2, 4-(4-(3,8-diazabicyclo[3.2.1]octan-3-yl)-8-fluoro-2-((4-methoxytetrahydro-2H-pyran-4-yl)methoxy)-6-(trifluoromethyl)quinazolin-7-yl)-2-amino-7-fluorobenzo[b]thiophene-3 carbonitrile] has an IC50 of 0.1 µM.
In the case of `N#Cc1c(N)sc2c(F)ccc(-c3c(Cl)cc4c(N5C6CCC5CNC6)nc(OCC56COC(C5)C6)nc4c3F)c12` (single isomer, unassigned) [Example 5-Isomer 2, 4-(2-((2-oxabicyclo[2.1.1]hexan-4-yl)methoxy)-4-(3,8-diazabicyclo [3.2.1]octan-8-yl)-6-chloro-8-fluoroquinazolin-7-yl)-2-amino-7-fluorobenzo[b]thio phene-3-carbonitrile], the IC50 is reported as 0.044 µM.
With `COCC12CC(COc3nc(N4CC5CCC(C4)N5)c4cc(C(F)(F)F)c(-c5ccc(F)c6sc(N)c(C#N)c56)c(F)c4n3)(CO1)C2` (single isomer, unassigned) [Example 11-Isomer 2, 4-(4-(3,8-diazabicyclo[3.2.1]octan-3-yl)-8-fluoro-2-((1-(methoxymethyl)-2-oxabicyclo[2.1.1]hexan-4-yl)methoxy)-6-(trifluoromethyl)quinazolin-7-yl)-2-amino-7-fluorobenzo[b]thiophene-3-carbonitrile] the IC50 was 0.037 µM.
For `N#Cc1c(N)sc2c(F)ccc(-c3c(C(F)(F)F)cc4c(N5CC6CCC(C5)N6)nc(OCC5(C(F)F)CCOC5)nc4c3F)c12` (single isomer, unassigned) [Example 14-Isomer 3, 4-(4-(3,8-diazabicyclo[3.2.1]octan-3-yl)-2-((3-(difluoromethyl)tetrahydrofuran-3-yl)methoxy)-8-fluoro-6-(trifluoromethyl)quinazolin-7-yl)-2-amino-7-fluorobenzo[b]thiophene-3-carbonitrile], the IC50 was 0.172 µM.
